Reference: patent US11357779B2 (G1 Therapeutics, Inc., priority 2018, dated 2022)
Read-outs that look alike come from different tables or passages of the source.

Test: Plasma concentration versus time of Compound I and metabolite Compound III in patients dosed QD or BID with Form B of Compound II plus fulvestrant
Assay type: in vivo, human
Details: human, plasma, oral; for concentration at 8 h: Day 1, 8.0 h; for concentration at 10 h: Day 1, 10.0 h; for concentration at 12 h: Day 1, 12.0 h; for concentration at 8 day: Day 8; for concentration at 15 day: Day 15; for concentration at 22 day: Day 22
From the text: Patients were enrolled into 1 of 2 parallel, independently operating, dose-escalation dosing cohorts with Form B of Compound II administered continuously either once daily (QD) or twice daily (BID) with food with fixed-dose fulvestrant (intramuscularly every 14 days for the first three injections and then every 28 days). Pre- or perimenopausal patients also received goserelin for the duration of study treatment. A […] agonist was started at least 28 days before the first dose of Form B, and those patients who were taking another LHRH agonist were switched to goserelin on Day 1. Patients were split into […] cohorts providing once a day (QD) dosing of 200 mg, 300 mg, 400 mg, 500 mg, or 650 mg of Form B, or twice a day (BID) dosing of 100 mg, 150 mg, or 200 mg of Form B. The second dose in BID cohorts was not administered in the evening until at least 12 hours after the initial morning dose of Form B. The dosing cohorts for Form B of Compound II are provided in Table 1.
Blood samples were collected at the following time points relative to the morning dose of Form B at Day 1 and at Day 29: pre-dose (0 hour) and 1, 2, 3, 4, 6, 8, 10, 12 (prior to the evening dose in the BID cohorts), and 24 (prior to the next day's morning dose) hours after dosing. A 5-minute time window was allowed for samples collected between the predose and 3 hours after Form B dosing. A 15-minute window was allowed for samples collected between 4 to 12 hours after Form B dosing. A 1-hour window was allowed for the sample collected 24 hours after Form B dosing. Blood samples for Compound I PK trough levels were collected pre-dose at Day 8, Day 15, and Day 22 prior to the morning administration of Compound I. Plasma concentrations of Compound I and its metabolite, Compound III, were measured using validated methods.
Analysis of plasma concentration versus time data for calculation of standard pharmacokinetic (PK) parameters following oral administration was conducted using Phoenix WinNonlin version 6.3 using actual blood sampling times.

[1] = 100 mg, 100 mg BID of Form B, Mean, read-out: Compound III Concentration
[2] = 100 mg, 100 mg BID of Form B, Median, read-out: Compound III Concentration
[3] = 100 mg, Cohort 6, 100 mg BID of Form B, read-out: Trough Compound III Concentration, Median
[4] = 100 mg, Cohort 6, 100 mg BID of Form B, read-out: Trough Compound III Concentration, Min
[5] = 400 mg, Cohort 3, 400 mg QD of Form B, read-out: Trough Compound III Concentration, Max
[6] = 400 mg, Cohort 3, 400 mg QD of Form B, read-out: Trough Compound III Concentration, Mean
[7] = 400 mg, Cohort 3, 400 mg QD of Form B, read-out: Trough Compound III Concentration, Median
[8] = 500 mg, Cohort 4, 500 mg QD of Form B, read-out: Trough Compound III Concentration, Max
[9] = 500 mg, Cohort 4, 500 mg QD of Form B, read-out: Trough Compound III Concentration, Mean
[10] = 500 mg, Cohort 4, 500 mg QD of Form B, read-out: Trough Compound III Concentration, Median
[11] = 500 mg, Cohort 4, 500 mg QD of Form B, read-out: Trough Compound III Concentration, Min

concentration at 0 h (100 mg, 100 mg BID of Form B, Day 1, 0.0 h, Mean, read-out: Compound III Concentration): 0 ng/mL | concentration at 0 h (100 mg, 100 mg BID of Form B, Day 1, 0.0 h, Median, read-out: Compound III Concentration): 0 ng/mL | concentration at 1 h (100 mg, 100 mg BID of Form B, Day 1, 1.0 h, Mean, read-out: Compound III Concentration): 0.248 ng/mL | concentration at 1 h (100 mg, 100 mg BID of Form B, Day 1, 1.0 h, Median, read-out: Compound III Concentration): 0 ng/mL | concentration at 2 h (100 mg, 100 mg BID of Form B, Day 1, 2.0 h, Mean, read-out: Compound III Concentration): 1.04 ng/mL | concentration at 2 h (100 mg, 100 mg BID of Form B, Day 1, 2.0 h, Median, read-out: Compound III Concentration): 1 ng/mL | concentration at 3 h (100 mg, 100 mg BID of Form B, Day 1, 3.0 h, Mean, read-out: Compound III Concentration): 1.41 ng/mL | concentration at 3 h (100 mg, 100 mg BID of Form B, Day 1, 3.0 h, Median, read-out: Compound III Concentration): 1.42 ng/mL | concentration at 4 h (100 mg, 100 mg BID of Form B, Day 1, 4.0 h, Mean, read-out: Compound III Concentration): 1.25 ng/mL | concentration at 4 h (100 mg, 100 mg BID of Form B, Day 1, 4.0 h, Median, read-out: Compound III Concentration): 1.13 ng/mL | concentration at 6 h (100 mg, 100 mg BID of Form B, Day 1, 6.0 h, Mean, read-out: Compound III Concentration): 0.471 ng/mL | concentration at 6 h (100 mg, 100 mg BID of Form B, Day 1, 6.0 h, Median, read-out: Compound III Concentration): 0.382 ng/mL | concentration at 8 h [1]: 0.219 ng/mL | concentration at 8 h [2]: 0 ng/mL | concentration at 10 h [1]: 0 ng/mL | concentration at 10 h [2]: 0 ng/mL | concentration at 12 h [1]: 0.0917 ng/mL | concentration at 12 h [2]: 0 ng/mL | concentration at 8 day [3]: 0.481 ng/mL | concentration at 8 day [4]: 0 ng/mL | concentration at 15 day [3]: 0.895 ng/mL | concentration at 15 day [4]: 0 ng/mL | concentration at 22 day [3]: 0.403 ng/mL | concentration at 22 day [4]: 0 ng/mL | concentration at 0 h (150 mg, 150 mg BID of Form B, Day 1, 0.0 h, Median, read-out: Compound III Concentration): 0 ng/mL | concentration at 1 h (150 mg, 150 mg BID of Form B, Day 1, 1.0 h, Median, read-out: Compound III Concentration): 1.52 ng/mL | concentration at 8 day [5]: 0.702 ng/mL | concentration at 8 day [6]: 0.406 ng/mL | concentration at 8 day [7]: 0.515 ng/mL | concentration at 15 day [5]: 0.665 ng/mL | concentration at 15 day [6]: 0.435 ng/mL | concentration at 15 day [7]: 0.64 ng/mL | concentration at 22 day [5]: 0.935 ng/mL | concentration at 22 day [6]: 0.729 ng/mL | concentration at 22 day [7]: 0.736 ng/mL | concentration at 22 day (400 mg, Cohort 3, 400 mg QD of Form B, read-out: Trough Compound III Concentration, Min): 0.515 ng/mL | concentration at 8 day [8]: 1.98 ng/mL | concentration at 8 day [9]: 1.71 ng/mL | concentration at 8 day [10]: 1.62 ng/mL | concentration at 8 day [11]: 1.53 ng/mL | concentration at 15 day [8]: 2.66 ng/mL | concentration at 15 day [9]: 2.07 ng/mL | concentration at 15 day [10]: 2.15 ng/mL | concentration at 15 day [11]: 1.33 ng/mL | concentration at 22 day [8]: 2.11 ng/mL | concentration at 22 day [9]: 1.73 ng/mL | concentration at 22 day [10]: 1.58 ng/mL | concentration at 22 day [11]: 1.5 ng/mL | concentration at 0 h (500 mg, Cohort 4, 500 mg QD of Form B, Day 29, 0.0 h, read-out: Compound III Concentration, Mean): 1.76 ng/mL | concentration at 0 h (500 mg, Cohort 4, 500 mg QD of Form B, Day 29, 0.0 h, read-out: Compound III Concentration, Min): 1.41 ng/mL | concentration at 1 h (500 mg, Cohort 4, 500 mg QD of Form B, Day 29, 1.0 h, read-out: Compound III Concentration, Mean): 2.98 ng/mL | concentration at 1 h (500 mg, Cohort 4, 500 mg QD of Form B, Day 29, 1.0 h, read-out: Compound III Concentration, Min): 2.06 ng/mL | concentration at 2 h (500 mg, Cohort 4, 500 mg QD of Form B, Day 29, 2.0 h, read-out: Compound III Concentration, Mean): 4.39 ng/mL | concentration at 2 h (500 mg, Cohort 4, 500 mg QD of Form B, Day 29, 2.0 h, read-out: Compound III Concentration, Min): 3.61 ng/mL | concentration at 3 h (500 mg, Cohort 4, 500 mg QD of Form B, Day 29, 3.0 h, read-out: Compound III Concentration, Mean): 5.9 ng/mL | concentration at 3 h (500 mg, Cohort 4, 500 mg QD of Form B, Day 29, 3.0 h, read-out: Compound III Concentration, Min): 4.66 ng/mL | concentration at 4 h (500 mg, Cohort 4, 500 mg QD of Form B, Day 29, 4.0 h, read-out: Compound III Concentration, Mean): 5.77 ng/mL | concentration at 4 h (500 mg, Cohort 4, 500 mg QD of Form B, Day 29, 4.0 h, read-out: Compound III Concentration, Min): 4.04 ng/mL | concentration at 6 h (500 mg, Cohort 4, 500 mg QD of Form B, Day 29, 6.0 h, read-out: Compound III Concentration, Mean): 4.18 ng/mL | concentration at 6 h (500 mg, Cohort 4, 500 mg QD of Form B, Day 29, 6.0 h, read-out: Compound III Concentration, Min): 3.55 ng/mL
SMILES: O=C1NCC2(CCCCC2)n2c1cc1cnc(Nc3ccc(N4CCNCC4)cn3)nc12 [Compound III, 2′-((5-(piperazin-1-yl)pyridin-2-yl)amino)-7′,8′-dihydro-6′H-spiro[cyclohexane-1,9′-pyrazino[1′,2′:1,5]pyrrolo[2,3-d]pyrimidin]-6′-one]
